The values below come from ChEMBL document CHEMBL1145878, “Synthesis and evaluation of isatins and thiosemicarbazone derivatives against cruzain, falcipain-2 and rhodesain” (Bioorg Med Chem Lett, 2003).

A value given as a limit tells only on which side of the number the result lay.

For assay [1], the target named is T1, Falcipain 2 (Plasmodium falciparum, UniProt Q9N6S8).
T1 sequence (Q9N6S8 whole entry): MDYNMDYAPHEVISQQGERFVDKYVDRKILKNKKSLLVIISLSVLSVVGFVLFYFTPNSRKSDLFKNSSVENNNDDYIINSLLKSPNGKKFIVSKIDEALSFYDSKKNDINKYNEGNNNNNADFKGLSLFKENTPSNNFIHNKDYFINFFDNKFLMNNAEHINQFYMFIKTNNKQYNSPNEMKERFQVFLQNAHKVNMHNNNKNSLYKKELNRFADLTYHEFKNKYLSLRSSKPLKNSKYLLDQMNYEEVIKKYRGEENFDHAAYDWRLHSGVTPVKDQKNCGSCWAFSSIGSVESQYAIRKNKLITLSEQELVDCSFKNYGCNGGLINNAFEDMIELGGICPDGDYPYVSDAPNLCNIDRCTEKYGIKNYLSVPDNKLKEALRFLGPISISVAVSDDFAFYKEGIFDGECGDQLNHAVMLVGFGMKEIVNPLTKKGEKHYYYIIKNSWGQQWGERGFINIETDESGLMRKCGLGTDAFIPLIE
Put plainly: Inhibitory activity against Falcipain-2; no effect.

Assay [2] deals with T2, Cruzipain (Trypanosoma cruzi, UniProt P25779). Put plainly: Inhibitory activity against the Trypanosoma cruzi cysteine protease cruzain.
T2 sequence (P25779 whole entry): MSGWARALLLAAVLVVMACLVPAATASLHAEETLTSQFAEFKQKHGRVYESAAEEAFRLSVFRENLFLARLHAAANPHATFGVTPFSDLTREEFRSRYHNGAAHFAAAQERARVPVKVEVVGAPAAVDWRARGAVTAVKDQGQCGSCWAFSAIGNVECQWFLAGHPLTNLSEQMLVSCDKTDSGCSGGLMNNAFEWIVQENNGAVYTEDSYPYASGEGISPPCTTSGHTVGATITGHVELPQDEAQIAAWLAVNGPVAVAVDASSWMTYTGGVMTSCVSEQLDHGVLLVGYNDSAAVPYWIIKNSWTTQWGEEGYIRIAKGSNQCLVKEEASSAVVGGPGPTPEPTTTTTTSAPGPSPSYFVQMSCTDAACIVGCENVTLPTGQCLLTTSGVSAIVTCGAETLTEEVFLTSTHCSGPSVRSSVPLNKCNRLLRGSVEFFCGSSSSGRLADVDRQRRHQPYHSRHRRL
The target in the next assay is Rhodesain (Trypanosoma brucei rhodesiense, UniProt Q95PM0). Put plainly: Inhibitory activity against Trypanosoma brucei rhodesiense cysteine protease rhodesain.
Sequence of Rhodesain (Q95PM0 whole entry): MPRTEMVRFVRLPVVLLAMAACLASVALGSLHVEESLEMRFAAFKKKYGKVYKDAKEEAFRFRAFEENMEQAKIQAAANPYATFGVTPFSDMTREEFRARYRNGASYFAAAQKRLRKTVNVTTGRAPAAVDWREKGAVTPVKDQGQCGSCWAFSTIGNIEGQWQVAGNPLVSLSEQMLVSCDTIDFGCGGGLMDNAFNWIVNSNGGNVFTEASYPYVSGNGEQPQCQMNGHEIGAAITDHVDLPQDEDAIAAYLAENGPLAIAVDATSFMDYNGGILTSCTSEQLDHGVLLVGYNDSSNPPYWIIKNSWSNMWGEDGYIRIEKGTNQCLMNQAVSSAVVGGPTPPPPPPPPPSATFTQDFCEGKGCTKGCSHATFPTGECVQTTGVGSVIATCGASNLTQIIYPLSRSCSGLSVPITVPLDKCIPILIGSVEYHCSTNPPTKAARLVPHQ
Assay [3] concerns the target T1, Falcipain 2. Put plainly: Inhibitory activity against Falcipain-2.
For assay [4], the target named is T1, Falcipain 2. The assay is described as follows: Inhibitory activity against Falcipain-2; No effect.
Assay [5] addresses T2, Cruzipain. Put plainly: Inhibitory activity against Cruzain;range is 20-50.

On to `O=C1Nc2ccc(Br)cc2C1=O`, for which the IC50 – broadly, the point on the concentration scale where inhibition reaches its midpoint – against Falcipain 2 [1] was “Not Active”; at Cruzipain [2], greater than 10 µM.
Consider `NC(=S)/N=N/c1c(O)[nH]c2ccc([N+](=O)[O-])cc12`, for which the results for the IC50 against Cruzipain [2], against Rhodesain and at Falcipain 2 [3] were 30 µM, 17 µM and 4.4 µM, respectively.
As to `Cc1ccc2c(c1)C(=O)C(=O)N2`, the values for the IC50 result against Falcipain 2 [4] and against Cruzipain [2] were “Not Active” and greater than 10 µM, respectively.
Regarding `O=C1C(=O)N(c2ccccc2)c2ccccc21` [PHENYL ISATIN], the concentration for half-maximal inhibition (IC50) result against Falcipain 2 [1] is “Not Active”; against Cruzipain [2], greater than 10 µM.
Taken in the same sequence, the figures for `O=C1Nc2ccc(F)cc2C1=O` [5-FLUOROISATIN] were “Not Active” and greater than 10 µM.
Turning to `NC(=S)/N=N/c1c(O)[nH]c2ccc(F)cc12`, the IC50 against Cruzipain [2] came to 30 µM; on Rhodesain, 15 µM; at Falcipain 2 [3], 38.6 µM.
Regarding `O=C1C(=O)N(C(=O)OCc2ccccc2)c2ccccc21`, the IC50 entry on Falcipain 2 [1] is “Not Active”; on Rhodesain, 30 µM.
Consider `COc1cccc(CN2C(=O)C(=O)c3cc(Cl)ccc32)c1`, for which the IC50 is greater than 10 µM on Cruzipain [2], greater than 10 µM on Rhodesain and 34.6 µM at Falcipain 2 [3].
Consider `O=C1Nc2ccccc2C1=O` [ISATIN], for which the IC50 entry is “Not Active” on Falcipain 2 [4], greater than 10 µM on Cruzipain [2] and greater than 10 µM against Rhodesain.
As for `Cc1ccc2[nH]c(O)c(/N=N/C(=N)S)c2c1`, the IC50 at Cruzipain [5] amounted to 50 µM; against Rhodesain it was 15 µM; at Falcipain 2 [3], 43.9 µM.
For `O=C1C(=O)N(Cc2ccccc2)c2ccc(Cl)cc21`, the IC50 on Cruzipain [2] is 90 µM; against Rhodesain, greater than 10 µM; against Falcipain 2 [3], 46.9 µM.
Take `O=C1C(=O)N(C(=O)OCc2ccccc2)c2ccc(F)cc21`: the IC50 against Cruzipain [2] and against Rhodesain was greater than 10 µM each time.
For `NC(=S)/N=N/c1c(O)[nH]c2ccc(Cl)cc12`, the results for the IC50 against Cruzipain [2], against Rhodesain and at Falcipain 2 [3] were 21 µM, 6 µM and 32.8 µM, respectively.
Take `O=C1Nc2ccc(Cl)cc2C1=O`: the IC50 entry against Falcipain 2 [1] was “Not Active”; against Cruzipain [2], greater than 10 µM.
Regarding `COc1cccc(CN2C(=O)C(=O)c3cc(C)ccc32)c1`, the values for the IC50 against Cruzipain [2], on Rhodesain and against Falcipain 2 [3] were 2 µM, greater than 10 µM and 21.9 µM, respectively.
`O=C1C(=O)N(Cc2ccccc2)c2ccccc21`: the IC50 entry at Falcipain 2 [1] was “Not Active”; against Cruzipain [2] it was greater than 10 µM; against Rhodesain, greater than 10 µM.
`O=C1Nc2ccc([N+](=O)[O-])cc2C1=O` [5-NITROISATIN]: the IC50 is greater than 10 µM on Cruzipain [2], greater than 10 µM at Rhodesain and 42.6 µM on Falcipain 2 [3].
Consider `Cc1cc(Cl)cc2c(/N=N/C(=N)S)c(O)[nH]c12`, for which the results for the IC50 against Cruzipain [2], at Rhodesain and against Falcipain 2 [3] were 10.5 µM, 3 µM and 9.4 µM, respectively.
As to `O=C1C(=O)N(C(=O)OCc2ccccc2)c2ccc(Cl)cc21`, the IC50 result against Falcipain 2 [1] was “Not Active”; on Cruzipain [2] it was 80 µM; on Rhodesain it was greater than 10 µM.
As for `CN1C(=O)C(=O)c2ccccc21`, the values for the half-maximal inhibitory concentration (IC50) result against Falcipain 2 [1] and at Cruzipain [2] were “Not Active” and greater than 10 µM, respectively.
In the case of `NC(=S)/N=N/c1c(O)[nH]c2ccc(I)cc12`, the IC50 against Cruzipain [2] turned out to be 9 µM; against Rhodesain it was 1 µM; against Falcipain 2 [3], 28.7 µM.
For the compound `Cc1cc(C)c2[nH]c(O)c(/N=N/C(=N)S)c2c1`, the IC50 at Cruzipain [2] was 16 µM; against Rhodesain, 15 µM; at Falcipain 2 [3], 13.2 µM.
Consider `O=C1C(=O)N(Cc2ccccc2)c2ccc(I)cc21`, for which the IC50 was 90 µM on Cruzipain [2] and greater than 10 µM on Rhodesain.
With `Cc1ccc2c(c1)C(=O)C(=O)N2Cc1ccccc1-c1ccccc1`, the IC50 was 2.8 µM against Cruzipain [2], greater than 10 µM against Rhodesain and 9.2 µM on Falcipain 2 [3].
`O=C1C(=O)N(S(=O)(=O)c2ccccc2)c2ccccc21`: the results for the IC50 result against Falcipain 2 [1] and at Rhodesain were “Not Active” and 15 µM, respectively.
Turning to `Cc1ccc(C)c(CN2C(=O)C(=O)c3cc(C)ccc32)c1`, the half-inhibitory concentration (IC50) result was “Not Active” against Falcipain 2 [1], 80 µM on Cruzipain [2] and greater than 10 µM against Rhodesain.
Regarding `O=C1Nc2ccc(I)cc2C1=O` [5-IODOISATIN], the IC50 result on Falcipain 2 [1] was “Not Active”; at Cruzipain [2] it was greater than 10 µM.
For the compound `NC(=S)/N=N/c1c(O)[nH]c2ccc(Br)cc12`, the IC50 was 20 µM at Cruzipain [2], 7 µM against Rhodesain and 29.6 µM against Falcipain 2 [3].
Consider `O=C1Nc2ccc(OC(F)(F)F)cc2C1=O`, for which the values for the IC50 result on Falcipain 2 [1], against Cruzipain [2] and at Rhodesain were “Not Active”, greater than 10 µM and greater than 10 µM, respectively.
On to `NC(=S)/N=N/c1c(O)[nH]c2ccccc12`, for which the half-inhibitory concentration (IC50) against Cruzipain [2] amounted to 8 µM; against Rhodesain it was 3.5 µM; at Falcipain 2 [3], 38.8 µM.
Consider `O=C1C(=O)N(C(=O)c2ccccc2)c2ccccc21`, for which the IC50 result against Falcipain 2 [1] was “Not Active”; at Rhodesain, 100 µM.
Consider `Cc1ccc2c(c1)C(=O)C(=O)N2Cc1ccc(Cl)cc1`, for which the IC50 result against Falcipain 2 [1] was “Not Active”; against Cruzipain [2], greater than 10 µM; against Rhodesain it was greater than 10 µM.
Consider `O=C1C(=O)N(Cc2ccc(Cl)cc2)c2ccc(Cl)cc21`, for which the IC50 against Cruzipain [2] was 6 µM; on Rhodesain, greater than 10 µM; against Falcipain 2 [3] it was 31.2 µM.
For the compound `Cc1cc(C)c2c(c1)C(=O)C(=O)N2`, the IC50 result on Falcipain 2 [1] is “Not Active”; on Cruzipain [2] it was greater than 10 µM.
